Numbers after ± are expanded uncertainties.

The conditions of the data set: 101.33 kPa, Liquid; for speed of sound: Sing-around technique in a fixed-path interferometer; for mass density: Vibrating tube method.

On to `CCN(CC)CC` [triethylamine], for which the speed of sound (293.15 K) is on record as 1132.8 ± 1 m/s, the speed of sound (298.15 K) is recorded as 1111.1 ± 1 m/s and the speed of sound (303.15 K) is 1090.7 ± 1 m/s. Besides, the mass density (293.15 K) worked out at 727.515 ± 0.22 kg/m3, the mass density (298.15 K) came out at 722.822 ± 0.22 kg/m3 and the mass density (303.15 K) was found to be 718.201 ± 0.22 kg/m3.

Consider `CCC(C)=O` [butanone], for which the speed of sound by setting is: (293.15 K) 1212.3 ± 1 m/s; (298.15 K) 1191 ± 1 m/s; (303.15 K) 1170.8 ± 1 m/s. Also, the mass density is 805.351 ± 0.19 kg/m3 (293.15 K), 800.077 ± 0.19 kg/m3 (298.15 K) and 794.779 ± 0.19 kg/m3 (303.15 K).

Regarding `CCCNCCC` [dipropylamine], the speed of sound (293.15 K) is reported as 1209.2 ± 1.4 m/s, the speed of sound (298.15 K) was determined as 1187.7 ± 1.3 m/s and the speed of sound (303.15 K) worked out at 1167.1 ± 1.3 m/s. Also, the mass density was determined as 738.188 ± 0.32 kg/m3 (293.15 K), 733.683 ± 0.32 kg/m3 (298.15 K) and 729.087 ± 0.32 kg/m3 (303.15 K).

As for `CCCCNCCCC` [dibutylamine], the speed of sound stood at 1261.2 ± 1 m/s (293.15 K), 1241.3 ± 1 m/s (298.15 K) and 1222.5 ± 1 m/s (303.15 K). Further, the mass density (293.15 K) came to 759.571 ± 0.2 kg/m3, the mass density (298.15 K) worked out at 755.457 ± 0.2 kg/m3 and the mass density (303.15 K) was determined as 751.329 ± 0.21 kg/m3.

(Values after the NIST ThermoML archive (doi:10.1016/j.tca.2010.09.004).)
